Columns and labels:
[1] = Autoclaving of N-butylglucamine reaction solution, HPLC comparison before and after; assay type: physicochemical; conditions: 5% (weight/volume) solution, 20 mM MgSO4, pH 5.0; 121° C., 30 P.S.I., 30 minutes
Description: The reaction solution can also be sterilized by autoclaving, as described below. A 5% (weight/volume) solution of N-butylglucamine containing 20 mM MgSO4, at pH 5.0, was autoclaved in a 500 ml shake flask with a silicon closure in place. The conditions for autoclaving were 121° C., 30 P.S.I., for 30 minutes. The pH was checked afterwards and found to be 5.0 at room temperature. There was no visible change in the color or the clarity of the solution, an indication that no caramelization or precipitation had occurred. […] Controls (not autoclaved) indicated at least 90% conversion at 48 hours, also. Autoclaving can therefore be used as a method for sterilizing the reaction solution.

[2] = cited from earlier work

stability of solution to autoclaving (HPLC before vs after) [1] | Compound | exposure concentration producing nose and throat irritation ([2]; exposure to as little as) | hazard description per Material Safety Data Sheets ([2]; supplier MSDS (Fisher Scientific))
the same | CCCCNC[C@H](O)[C@@H](O)[C@H](O)[C@H](O)CO [N-butylglucamine] |  | 
 | CCCCN [N-n-butylamine] | 5-10 ppm | toxic and a severe eye, skin and mucous membrane irritant
